Source: ChEMBL document CHEMBL5108009, “Positron Emission Tomography (PET) Imaging Tracers for Serotonin Receptors” (J Med Chem, 2022)

Columns and labels:
[1] = Ratio of drug uptake in macaque brain frontal cortex to cerebellum at 3680 to 4035 Ci/mmol, iv by PET imaging upto 100 mins relative to control; type: ADME, organism-based; details: macaca, in vivo, 1.667 h, dose 3680-4035 Ci/mmol
[2] = Ratio of drug uptake in macaque brain occipital cortex to cerebellum at 3680 to 4035 Ci/mmol, iv by PET imaging upto 100 mins relative to control; type: ADME, organism-based; details: macaca, in vivo, 1.667 h, dose 3680-4035 Ci/mmol
[3] = target: T1, 5-hydroxytryptamine receptor 1B (Cavia porcellus, UniProt O08892); experiment: Binding affinity to guinea pig 5-HT1B receptor assessed as inhibition constant by autoradiographic analysis
[4] = target: T1, 5-hydroxytryptamine receptor 1B; experiment: Binding affinity to guinea pig 5-HT1B receptor assessed as dissociation constant by autoradiographic analysis
[5] = Ratio of drug uptake in macaque brain striatopallidal complex to cerebellum at 3680 to 4035 Ci/mmol, iv by PET imaging upto 100 mins relative to control; type: ADME, organism-based; details: macaca, in vivo, 1.667 h, dose 3680-4035 Ci/mmol
[6] = Ratio of drug uptake in macaque brain thalamus to cerebellum at 3680 to 4035 Ci/mmol, iv by PET imaging upto 100 mins relative to control; type: ADME, organism-based; details: macaca, in vivo, 1.667 h, dose 3680-4035 Ci/mmol
[7] = Drug uptake in macaque brain at 3680 to 4035 Ci/mmol, iv measured as percentage of injected dose by PET imaging at 7.5 mins relative to control; type: ADME, organism-based; details: macaca, in vivo, 0.125 h, dose 3680-4035 Ci/mmol
[8] = target: Serotonin 2 (5-HT2) receptor (Homo sapiens, UniProt P41595+P28223+P28335); experiment: Binding affinity to 5-HT2 receptor (unknown origin) assessed as dissociation constant; type: protein assay
[9] = target: T2, 5-hydroxytryptamine receptor 1A (Homo sapiens, UniProt P08908); experiment: Inhibition of 5-HT1A receptor (unknown origin)
T2 sequence (P08908 whole entry): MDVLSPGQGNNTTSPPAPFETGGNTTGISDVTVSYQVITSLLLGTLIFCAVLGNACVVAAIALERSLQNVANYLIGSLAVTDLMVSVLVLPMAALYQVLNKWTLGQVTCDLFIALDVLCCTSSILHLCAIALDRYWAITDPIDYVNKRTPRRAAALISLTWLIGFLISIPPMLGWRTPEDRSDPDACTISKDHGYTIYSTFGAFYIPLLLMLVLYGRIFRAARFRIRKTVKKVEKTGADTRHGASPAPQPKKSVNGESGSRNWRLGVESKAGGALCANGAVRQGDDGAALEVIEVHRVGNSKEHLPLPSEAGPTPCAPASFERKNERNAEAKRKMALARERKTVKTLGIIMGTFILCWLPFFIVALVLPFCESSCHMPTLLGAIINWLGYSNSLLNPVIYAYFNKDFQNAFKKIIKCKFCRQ

[10] = target: T2, 5-hydroxytryptamine receptor 1A
[11] = Binding affinity to pig 5-HT1B receptor (unknown origin) assessed as inhibition constant
[12] = Drug uptake in cynomolgus monkey frontal cortex administered iv measured as percentage of injected dose by PET imaging relative to control; type: ADME, organism-based, Macaca fascicularis; details: in vivo
[13] = target: T2, 5-hydroxytryptamine receptor 1A; experiment: Binding affinity to 5-HT1A receptor (unknown origin) assessed as inhibition constant by scintillation spectroscopic analysis
[14] = Ratio of drug uptake in human cortex to cerebellum assessed as increase in uptake relative to control; type: ADME, tissue-based
D(2) dopamine receptor [15] = target: T3, D(2) dopamine receptor (Rattus norvegicus, UniProt P61169); experiment: Displacement of [3H]-spiperone from rat frontal cortex membrane homogenate D2 receptor; type: cell membranes
[16] = target: T4, Alpha-1A adrenergic receptor (Rattus norvegicus, UniProt P43140); experiment: Displacement of [3H]-prazosin from rat whole cortex membrane homogenate alpha 1 adrenergic receptor; type: cell membranes
T4 sequence (P43140 whole entry): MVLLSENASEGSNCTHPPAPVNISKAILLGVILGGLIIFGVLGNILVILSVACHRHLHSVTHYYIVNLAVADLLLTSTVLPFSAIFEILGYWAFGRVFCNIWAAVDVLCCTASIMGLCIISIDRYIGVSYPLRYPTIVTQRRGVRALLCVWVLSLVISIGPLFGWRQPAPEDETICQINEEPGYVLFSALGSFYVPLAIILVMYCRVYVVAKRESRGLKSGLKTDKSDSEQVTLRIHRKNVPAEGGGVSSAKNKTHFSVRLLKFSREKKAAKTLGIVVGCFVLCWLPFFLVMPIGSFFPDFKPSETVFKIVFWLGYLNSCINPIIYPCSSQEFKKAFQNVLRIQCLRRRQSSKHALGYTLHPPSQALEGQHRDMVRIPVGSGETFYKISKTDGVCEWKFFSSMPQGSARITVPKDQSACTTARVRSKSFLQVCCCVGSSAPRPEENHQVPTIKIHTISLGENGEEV

[17] = target: T5, 5-hydroxytryptamine receptor 2A (Rattus norvegicus, UniProt P14842); experiment: Displacement of [3H]-spiperone from rat frontal cortex homogenate 5-HT2A receptor; type: tissue-based
[18] = target: T4, Alpha-1A adrenergic receptor; experiment: Displacement of [3H]-WB4101 from rat forebrain homogenate alpha 1 adrenergic receptor; type: tissue-based
D(2) dopamine receptor [19] = target: T3, D(2) dopamine receptor; experiment: Displacement of [3H]-haloperidol from rat striatal homogenate D2 receptor; type: tissue-based, Striatum
[20] = Biodistribution in Wistar rat assessed as uptake ratio of cortex to cerebellum at 50 to 100 microCi measured after 2 hrs; type: ADME, organism-based; details: in vivo, dose 50-100 microCi
[21] = target: T2, 5-hydroxytryptamine receptor 1A; experiment: Displacement of [3H]-8-OH-DPAT from 5HT1A receptor (unknown origin)
D(2) dopamine receptor [22] = target: T3, D(2) dopamine receptor; experiment: Displacement of [3H]-spiperone from rat striatum D2 receptor
[23] = target: 5-hydroxytryptamine receptor 2A (Homo sapiens, UniProt P28223); experiment: Binding affinity to human frontal cortex homogenate 5-HT2A by ketanserin assay; type: tissue-based
[24] = target: T5, 5-hydroxytryptamine receptor 2A; experiment: Binding affinity to rat frontal cortex homogenate 5-HT2A by ketanserin assay; type: tissue-based
[25] = target: Serotonin 2 (5-HT2) receptor (Rattus norvegicus, UniProt P30994+P08909+P14842); experiment: Displacement of [3H]-spiperone from rat frontal cortex 5-HT2 receptor; type: tissue-based
[26] = target: T4, Alpha-1A adrenergic receptor; experiment: Displacement of [3H]prazosin from rat cerebral cortex alpha1 adrenergic receptor; type: tissue-based

T3 sequence (P61169 whole entry): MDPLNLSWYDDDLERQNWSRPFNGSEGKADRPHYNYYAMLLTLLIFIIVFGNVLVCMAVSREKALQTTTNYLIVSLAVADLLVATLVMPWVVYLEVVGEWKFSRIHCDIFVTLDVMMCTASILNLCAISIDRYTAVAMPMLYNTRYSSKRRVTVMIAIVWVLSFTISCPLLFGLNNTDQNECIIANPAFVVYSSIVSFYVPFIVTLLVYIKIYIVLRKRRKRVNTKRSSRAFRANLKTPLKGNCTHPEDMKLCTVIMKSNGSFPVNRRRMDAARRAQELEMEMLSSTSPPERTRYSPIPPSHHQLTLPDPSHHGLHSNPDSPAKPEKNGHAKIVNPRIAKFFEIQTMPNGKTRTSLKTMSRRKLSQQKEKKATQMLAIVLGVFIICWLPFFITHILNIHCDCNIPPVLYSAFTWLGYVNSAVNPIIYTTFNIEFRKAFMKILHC
T1 sequence (O08892 whole entry): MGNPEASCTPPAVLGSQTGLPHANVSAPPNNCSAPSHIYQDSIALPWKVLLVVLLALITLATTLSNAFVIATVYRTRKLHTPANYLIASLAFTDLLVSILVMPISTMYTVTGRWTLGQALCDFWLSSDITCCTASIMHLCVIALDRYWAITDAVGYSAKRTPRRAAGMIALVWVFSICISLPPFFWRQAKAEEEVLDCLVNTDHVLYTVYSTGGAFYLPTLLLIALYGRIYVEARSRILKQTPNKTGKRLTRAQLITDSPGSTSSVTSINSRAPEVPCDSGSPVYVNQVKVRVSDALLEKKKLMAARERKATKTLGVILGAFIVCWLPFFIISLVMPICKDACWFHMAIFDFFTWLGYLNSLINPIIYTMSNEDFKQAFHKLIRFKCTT
T5 sequence (P14842 whole entry): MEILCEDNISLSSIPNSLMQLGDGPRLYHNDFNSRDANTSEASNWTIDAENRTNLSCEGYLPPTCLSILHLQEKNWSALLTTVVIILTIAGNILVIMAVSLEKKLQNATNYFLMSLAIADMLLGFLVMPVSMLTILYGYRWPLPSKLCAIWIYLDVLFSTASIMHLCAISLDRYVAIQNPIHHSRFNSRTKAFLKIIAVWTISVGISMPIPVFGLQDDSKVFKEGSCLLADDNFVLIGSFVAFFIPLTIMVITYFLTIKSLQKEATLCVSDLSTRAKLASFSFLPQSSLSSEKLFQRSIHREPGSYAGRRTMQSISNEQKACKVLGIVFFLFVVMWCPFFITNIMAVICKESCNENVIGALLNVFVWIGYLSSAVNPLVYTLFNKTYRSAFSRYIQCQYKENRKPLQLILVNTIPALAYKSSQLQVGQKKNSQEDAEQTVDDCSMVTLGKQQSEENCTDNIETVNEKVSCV
Sequence of 5-hydroxytryptamine receptor 2A (Homo sapiens, UniProt P28223) (P28223 whole entry): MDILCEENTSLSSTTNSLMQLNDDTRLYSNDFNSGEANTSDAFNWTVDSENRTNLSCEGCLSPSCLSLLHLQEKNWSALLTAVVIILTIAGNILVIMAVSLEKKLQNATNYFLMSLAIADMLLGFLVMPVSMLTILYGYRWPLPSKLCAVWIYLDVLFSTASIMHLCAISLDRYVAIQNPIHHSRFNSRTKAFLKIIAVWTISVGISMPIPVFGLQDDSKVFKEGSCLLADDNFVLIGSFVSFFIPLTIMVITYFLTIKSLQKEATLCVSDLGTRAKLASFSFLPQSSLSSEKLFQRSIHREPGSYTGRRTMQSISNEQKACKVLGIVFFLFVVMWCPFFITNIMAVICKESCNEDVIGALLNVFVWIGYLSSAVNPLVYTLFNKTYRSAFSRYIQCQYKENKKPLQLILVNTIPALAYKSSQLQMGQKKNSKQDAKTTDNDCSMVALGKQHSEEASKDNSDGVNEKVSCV

Cc1ccc(N2CCN([11CH3])CC2)c2oc(C(=O)Nc3ccc(N4CCOCC4)cc3)cc(=O)c12
Ratio [1]: 2.6 | Ratio [2]: 4.2 | Ki [3]: 0.01 nM | Kd [4]: 0.4 nM | Ratio [5]: 4.1 | Ratio [6]: 2.6 | Drug uptake [7]: 3%

CN(C)CCO/N=C(/C=C/c1ccc(O)cc1)c1ccccc1F [EPLIVANSERIN]
Kd [8]: 1.2 nM

CCCN(CCC)C1CCc2ccc3[nH]cc(C=O)c3c2C1 (stereo unspecified)
IC50 [9]: 1.2 nM | Ki [10]: 1.2 nM

CCC(=O)N1CCN(c2ccc(NC(=O)c3cc(=O)c4cc(F)cc(N5CCN([11CH3])CC5)c4o3)cc2)CC1
Ki [11]: 2 nM | Drug uptake [12]: 0.7%

CNc1nc(CNCC2(F)CCN(C(=O)c3ccc(F)c(Cl)c3)CC2)ccc1C
Ki [13]: 0.04 nM

[2H]C([2H])(Cn1c(=S)[nH]c2ccccc2c1=O)N1CCC(C(=O)c2ccc([18F])cc2)CC1
Drug uptake [14]: 26%

CCN(CC)C(=O)[C@@H]1C=C2c3cccc4c3c(c(Br)n4C)CC2N(C)C1 (stereo partly specified)
Ki (D(2) dopamine receptor [15]): 3.9 nM | Ki [16]: 34 nM

Cc1nc2n(c(=O)c1CCN1CCC(C(=O)c3ccc(F)cc3)CC1)CCS2 [SETOPERONE]
Ki [17]: 2.3 nM | Ki [18]: 12 nM | Ki (D(2) dopamine receptor [19]): 24 nM

O=C(c1ccc([18F])cc1)C1CCN(CCn2c(=S)[nH]c3ccccc3c2=O)CC1
Ratio [20]: 11

CSc1cccc(C(=O)NC[C@@H]2CCCN2CCc2ccccc2)c1
Ki [21]: 4.3 nM

CN1CN(c2ccccc2)C2(CCN(CCCC(=O)c3ccc(F)cc3)CC2)C1=O [MESPIPERONE]
IC50 (D(2) dopamine receptor [22]): 0.23 nM | Ki [23]: 8.8 nM | Ki [24]: 0.5 nM | IC50 [25]: 1.3 nM | IC50 [26]: 10.1 nM
